Patent publication US5858684A, “Method of screening calcium receptor-active molecules” (priority 1995, dated 1999)
pEC50, pIC50: −log10 of the molar value. “Also recorded” adds a separate entry of the source. Like-named read-outs stand apart in the source and are kept apart here.

Legend:
[1] = test system: parathyroid cell calcium receptor; format: cell-based; settings: for response of bovine parathyroid cells or Xenopus oocytes expressing calcium receptors to mGluR agonists: bovine parathyroid cells or calcium receptor-expressing Xenopus oocytes; for mobilization of intracellular Ca2+: 500 μM
Procedure: For example, bovine parathyroid cells loaded with fura-2 are initially suspended in buffer containing 0.5 mM CaCl2. A test substance is added to the cuvette in a small volume (5-15 μl) and changes in the fluorescence signal are measured. Cumulative increases in the concentration of the test substance are made in the cuvette until some predetermined concentration is achieved or no further changes in fluorescence are noted.
This section describes procedures used to obtain and treat parathyroid cells from calves and humans. […] Human parathyroid glands, were obtained from patients undergoing surgical removal of parathyroid tissue for primary or uremic hyperparathyroidism (uremic HPT), and were treated similarly to bovine tissue.
Glands were trimmed of excess fat and connective tissue and then minced with fine scissors into cubes approximately 2-3 mm on a side. Dissociated parathyroid cells were prepared by collagenase digestion and then purified by centrifugation in Percoll buffer. The resultant parathyroid cell preparation was essentially devoid of red blood cells, adipocytes, and capillary tissue as assessed by phase contrast microscopy and Sudan black B staining. Dissociated and purified parathyroid cells were present as small clusters containing 5 to 20 cells.
(§1) The cells were then pelleted, resuspended in the same buffer, but lacking the ester, and incubated a further 15 minutes at 37° C. The cells were subsequently washed twice with PCB containing 0.5 mM CaCl2 and 0.5% BSA and maintained at room temperature (about 20° C.). Immediately before use, the cells were diluted five-fold with prewarmed 0.5 mM CaCl2 -PCB to obtain a final BSA concentration of 0.1%. The concentration of cells in the cuvette used for fluorescence recording was 1-2×10^6 /ml.
(§2) The fluorescence of indicator-loaded cells was measured at 37° C. in a spectrofluorimeter (Biomedical Instrumentation Group, University of Pennsylvania, Philadelphia, Pa.) equipped with a thermostated cuvette holder and magnetic stirrer using excitation and emission wavelengths of 340 and 510 nm, respectively. […] Leakage of dye is dependent on temperature and most occurs within the first 2 minutes after warming the cells in the cuvette. Dye leakage increases only very slowly thereafter. To correct the calibration for dye leakage, cells were placed in the cuvette and stirred at 37° C. for 2-3 minutes. The cell suspension was then removed, the cells pelleted, and the supernatant returned to a clean cuvette. […] This estimate was subtracted from the apparent Fmin.
Dissociated bovine parathyroid cells were purified on gradients of Percoll and cultured overnight in serum-free medium.

[2] = target: T1, bovine parathyroid cell calcium receptor (BoPCaR 1) (Bos taurus, UniProt P35384); experiment: Cl- current in Xenopus oocytes expressing BoPCaR 1; format: cell-based
T1 construct: Xenopus oocytes were injected with BoPCaR 1, the 5.3 Kb cDNA encoding a bovine parathyroid cell calcium receptor; expressed in transfected cells; host or cells: Xenopus laevis oocytes injected with cRNA/cDNA of BoPCaR 1
T1 sequence (P35384 20-1085): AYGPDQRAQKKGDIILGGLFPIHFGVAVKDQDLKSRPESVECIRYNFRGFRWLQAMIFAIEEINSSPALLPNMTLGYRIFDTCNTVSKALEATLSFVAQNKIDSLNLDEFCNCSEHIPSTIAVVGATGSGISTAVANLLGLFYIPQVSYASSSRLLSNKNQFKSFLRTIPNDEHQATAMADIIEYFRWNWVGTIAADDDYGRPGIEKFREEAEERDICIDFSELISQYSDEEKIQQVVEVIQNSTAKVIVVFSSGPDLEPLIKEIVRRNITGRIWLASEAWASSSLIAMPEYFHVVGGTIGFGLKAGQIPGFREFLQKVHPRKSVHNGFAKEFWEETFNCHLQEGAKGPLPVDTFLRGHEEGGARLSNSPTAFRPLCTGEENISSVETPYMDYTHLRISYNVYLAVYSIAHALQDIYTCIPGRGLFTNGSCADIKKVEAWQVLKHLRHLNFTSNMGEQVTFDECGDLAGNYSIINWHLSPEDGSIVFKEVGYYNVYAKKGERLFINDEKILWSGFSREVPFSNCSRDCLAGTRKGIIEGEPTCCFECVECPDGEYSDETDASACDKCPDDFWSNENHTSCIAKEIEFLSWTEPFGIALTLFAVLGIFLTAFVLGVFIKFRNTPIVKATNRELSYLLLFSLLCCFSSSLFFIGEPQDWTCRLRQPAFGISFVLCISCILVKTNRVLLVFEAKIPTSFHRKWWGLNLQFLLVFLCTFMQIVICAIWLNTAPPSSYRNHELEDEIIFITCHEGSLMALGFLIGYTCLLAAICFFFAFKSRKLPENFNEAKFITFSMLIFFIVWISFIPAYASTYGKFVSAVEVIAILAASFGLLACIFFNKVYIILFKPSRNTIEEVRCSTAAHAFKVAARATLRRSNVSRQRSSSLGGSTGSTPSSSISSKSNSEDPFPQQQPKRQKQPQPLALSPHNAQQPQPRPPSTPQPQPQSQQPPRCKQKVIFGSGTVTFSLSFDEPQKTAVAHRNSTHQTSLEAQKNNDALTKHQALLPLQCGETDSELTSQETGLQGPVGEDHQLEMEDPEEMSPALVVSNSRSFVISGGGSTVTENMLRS
Procedure: Following incubation, an oocyte was placed into a 100-μl plastic chamber and superfused with MBS at a flow rate of 0.5 ml/min using a peristaltic pump. Test molecules or inorganic polycations were added by rapidly moving the tubing into different buffers. Recording and current-passing electrodes were constructed from thin-wall capillary tubing pulled to a resistance of 1-3 Mohms and filled with 3M KCl. […] Currents were recorded directly onto a strip chart recorder.
The techniques used to clone the parathyroid calcium receptor are briefly described in this example; a more complete description of the techniques is provided in preceding sections, which describe techniques which may be used to clone additional forms of the Ca^2+ -receptor from other cell types. Poly(A^+)-enriched mRNA was initially prepared from bovine parathyroid glands by extracting with guanidinium thiocyanate, centrifugation through CsCl and oligo(dT) cellulose chromatography. […] No such currents were elicited in control eggs injected with water.
These responses are mediated by the following series of biochemical events:
Xenopus oocytes were injected with BoPCaR 1, the 5.3 Kb cDNA encoding a bovine parathyroid cell calcium receptor as described in Example 25. After two to three days, Cl^- currents were examined in the oocytes using a two-electrode voltage clamp.
Xenopus oocytes were injected with BoPCaR 1 as described in Example 25. After two to three days, Cl^- currents were examined in the oocytes using two electrode voltage clamp.

[3] = net positive charge; format: physicochemical
[4] = test system: increases in [Ca2+]i elicited by extracellular Ca2+ in bovine parathyroid cells; experiment: block of extracellular Ca2+-induced [Ca2+]i increase / Ca2+ influx in bovine parathyroid cells; format: cell-based
Procedure: as §1, §2

In the case of N[C@@]1(C(=O)O)CC[C@@H](C(=O)O)C1 (relative stereo) [trans-ACPD], the “response of bovine parathyroid cells or Xenopus oocytes expressing calcium receptors to mGluR agonists” value [1] was “did not respond”.
With CC1=C(C(=O)OC(C)C)C(c2cccc3nonc23)C([N+](=O)[O-])=C(C)N1 (single isomer, unassigned; (+)) [(+) 202-791] the “effect on basal [Ca2+]i or increases evoked by extracellular Ca2+” value ([1]; 1 μM) was “None”.
For CC1=C(C(=O)OC(C)C)C(c2cccc3nonc23)C([N+](=O)[O-])=C(C)N1 (single isomer, unassigned; (-)) [(-) 202-791], the “effect on basal [Ca2+]i or increases evoked by extracellular Ca2+” value ([1]; 1 μM) was “None”.
With O=C(O)c1c2ccccc2cc2ccccc12 [9AC] the “effect on activated chloride currents” value [2] was “blocks the currents”.
In the case of CNc1ccc2oc(C[C@H]3O[C@@]4(CC[C@H]3C)O[C@H]([C@H](C)C(=O)c3ccc[nH]3)[C@H](C)C[C@H]4C)nc2c1C(=O)O [A23187], the “effect on activated chloride currents” value [2] was “activated”.
For N=C(N)NCCC[C@H](N)C(=O)NCCCNCCCNCCCCCNC(=O)[C@H](CC(N)=O)NC(=O)Cc1ccc(O)cc1O [Argiotoxin-636], the “net positive charge” value [3] was “+4”, the “increase in [Ca2+]i (words)” value ([1]; 400 μM) was “did not elicit increases” and the “potentiation of cytosolic Ca2+ response to extracellular Ca2+” value ([1]; 400 μM) was “did potentiate cytosolic”. For the same compound, the “increase in [Ca2+]i (words)” value ([1]; tested at concentrations similar to 100 to 300 μM) was “had no effect”.
In the case of N=C(N)NCCC[C@H](N)C(=O)NCCCNCCCNCCCCCNC(=O)[C@H](CC(N)=O)NC(=O)Cc1c[nH]c2cccc(O)c12 [Argiotoxin-659], the “Net (+) Charge (Table 1)” value [3] was “+4”, the “net positive charge” value [3] was “+4” and the “concentrations evoking transient increases in [Ca2+]i” value ([1]; bovine parathyroid cells) was 100 to 300 µM. The pEC50 ([1]; read-out: EC50 (Table 1), parathyroid cells, screened as in Example 1) was 3.52 and the pEC50 ([1]; read-out: EC50 for mobilization of intracellular Ca2+, bovine parathyroid cells) was 3.52.
With COC(=O)C1=C(C)NC(C)=C([N+](=O)[O-])C1c1ccccc1C(F)(F)F (stereo not drawn) [BAY K 8644] the “effect on basal [Ca2+]i or increases evoked by extracellular Ca2+” value ([1]; 1 μM) was “None”.
In the case of NC[C@H]1O[C@H](O[C@H]2[C@H](O)[C@@H](O[C@H]3O[C@H](CO)[C@@H](O)[C@H](N)[C@H]3O)[C@H](N)C[C@@H]2N)[C@H](N)[C@@H](O)[C@@H]1O [Bekanamycin], the “Net (+) Charge (Table 1)” value [3] was “+5”, the net positive charge ([3]; pH 7.3) was “+5” and the pEC50 ([1]; read-out: EC50 for mobilization of intracellular Ca2+ (Table 4), screened as in Example 1) was 3.70.
In the case of NCCCCCN [Cadaverine, cadaverine], the “net positive charge” value [3] was “+2”.
For COc1ccc(CCN(C)CCCC(C#N)(c2cc(OC)c(OC)c(OC)c2)C(C)C)cc1OC [D-600], the “block of influx of extracellular Ca2+” value ([4]; 100 μM) was “blocked the influx of extracellular”, the “potentiation of mobilization of intracellular Ca2+ elicited by extracellular divalent cations” value ([1]; 100 μM) was “potentiated the mobilization of intracellular” and the “change in [Ca2+]i” value ([1]; 100 μM, 0.5 mM extracellular Ca2+) was “evoked no change”. The “increase in [Ca2+]i at intermediate extracellular Ca2+” value ([1]; 100 μM, 1-[…] extracellular Ca2+) was “small, but robust increase”.
For O=C(O)CN(CCOCCOCCN(CC(=O)O)CC(=O)O)CC(=O)O [EGTA], the “effect on inward currents to Gd3+” value ([2]; EGTA 100 μM, Gd3+ 600 μM) was “prevents oocytes expressing the calcium receptor from responding”.
In the case of NC[C@H]1O[C@H](O[C@H]2[C@H](O)[C@@H](O[C@H]3O[C@H](CO)[C@@H](O)[C@H](N)[C@H]3O)[C@H](N)C[C@@H]2N)[C@H](O)[C@@H](O)[C@@H]1O [Kanamycin], the net positive charge ([3]; pH 7.3) was “~+4.5” and the “mobilization of intracellular Ca2+” value [1] was “without effect”.
With CCC[C@@H]1C[C@@H](C(=O)N[C@@H]([C@H]2O[C@H](SC)[C@H](O)[C@@H](O)[C@H]2O)[C@@H](C)O)N(C)C1 [Lincomycin] the net positive charge ([3]; pH 7.3) was “+1” and the “mobilization of intracellular Ca2+” value [1] was “without effect”.
For NCCCCCCCCCCCCNC(=O)Cc1ccc(O)cc1O [NPS 021], the “effect on increase in [Ca2+]i elicited by extracellular Ca2+” value ([4]; 200 μM, [Ca2+] 0.5 to 2 mM) was “inhibited the increase”, the pIC50 ([4]; Bos taurus, fura-2 loaded bovine parathyroid cells, read-out: IC50 for blocking increase in [Ca2+]i elicited by extracellular Ca2+) was roughly 3.70 and the “increase in [Ca2+]i evoked by extracellular Ca2+” value ([4]; around 500 μM) was “abolished”. The “change in [Ca2+]i by compound alone” value ([1]; 0.5 mM Ca2+) was “caused no change; also recorded: does not by itself cause any change”.
For NCCCN(CCCN)CCCN(CCCN)CCCCN(CCCN)CCCN(CCCN)CCCN [NPS 381, N^1,N^1,N^5, N^10,N^14, N^14-hexakis-(3-aminopropyl) spermine], the “Net (+) Charge (Table 1)” value [3] was “+10”.
With NCCCN(CCCN)CCCNCCCCNCCCN(CCCN)CCCN [NPS 382, N^1,N^1,N^5,N^14, N^14-tetrakis-(3-aminopropyl)spermine] the “Net (+) Charge (Table 1)” value [3] was “+8”.
In the case of NCCCN1CCCN(CCCN)CCN(CCCN)CCCN(CCCN)CC1 [NPS 383], the “Net (+) Charge (Table 1)” value [3] was “+8”.
For COc1ccc(CC(=O)NCCCCCCCCCCCCN)cc1OC [NPS 384], the “block of influx of extracellular Ca2+” value ([4]; 300 μM) was “blocked influx of extracellular”, the “effect of pretreatment on increases in [Ca2+]i elicited by extracellular Ca2+” value ([4]; 100 to 1000 μM) was “depresses steady-state, but not transient increases” and the “fall in [Ca2+]i” value ([4]; 100 to 1000 μM, buffer containing 2 mM CaCl2) was “prompt fall”. The “increase in [Ca2+]i (words)” value ([1]; 300 μM) was “did not evoke an increase”.
In the case of COc1cccc([C@H](C)NCCCc2ccccc2Cl)c1 [NPS S-568], the concentration eliciting responses ([2]; BoPCaR 1-injected oocytes) was 100 µM.
With CCCC(=O)N[C@@H](Cc1ccc(O)cc1)C(=O)NCCCCNCCCNCCCN [Philanthotoxin-433] the “net positive charge” value [3] was “+3” and the “mobilization of intracellular Ca2+” value [1] was “without effect”.
For NCCCCN [Putrescine], the “net positive charge” value [3] was “+2”.
In the case of C[C@@H](NCCC(c1ccccc1)c1ccccc1)c1ccccc1 [R-Fendiline], the pEC50 ([1]; bovine parathyroid cells, fura-2, read-out: EC50 PARATHYROID (Table 6)) was 5.05.
With [H]/N=C(/N)N[C@H]1[C@H](O)[C@@H](O)[C@H](O[C@@H]2O[C@@H](C)[C@](O)(C=O)[C@H]2O[C@@H]2O[C@@H](CO)[C@H](O)[C@@H](O)[C@@H]2NC)[C@@H](N/C(N)=N\[H])[C@@H]1O [Streptomycin] the “Net (+) Charge (Table 1)” value [3] was “+3”, the net positive charge ([3]; pH 7.3) was “+3” and the pEC50 ([1]; parathyroid cells, screened as in Example 1, read-out: EC50 (Table 1)) was 3.22.
For NCCNCCNCCNCCN [Tetraethylenepentamine (TEPA), Tetraethylenepentamine], the “Net (+) Charge (Table 1)” value [3] was “+5”.
For NCCNCCNCCN [Triethylenetramine (TETA), triethylenetetramine], the “Net (+) Charge (Table 1)” value [3] was “+4” and the pEC50 ([1]; read-out: EC50 (Table 3)) was […].
For CC(NCCCc1ccccc1)c1ccccc1 (stereo not drawn) [compound 1D], the “relative potency” value ([1]; vs R-fendiline) was “nearly as potent as the parent molecule”.
In the case of COc1ccc([C@@H]2Sc3ccccc3N(CCN(C)C)C(=O)[C@@H]2OC(C)=O)cc1 [diltiazem], the “effective concentration, like verapamil and D-600” value [1] was 100 µM.
In the case of N[C@@H](CCC(=O)O)C(=O)O [glutamate], the “response of bovine parathyroid cells or Xenopus oocytes expressing calcium receptors to mGluR agonists” value [1] was “did not respond”.
With COc1cccc(C(C)NCCC(c2ccccc2)c2ccccc2)c1 (stereo not drawn) [meta-Methoxyfendiline] the “relative potency” value ([1]; vs NPS 467) was “as potent as NPS 467”.
For COC(=O)C1=C(C)NC(C)=C(C(=O)OC)C1c1ccccc1[N+](=O)[O-] [nifedipine], the “effect on basal [Ca2+]i or increases evoked by extracellular Ca2+” value [1] was “None”.
For CCOC(=O)C1=C(C)NC(C)=C(C(=O)OC)C1c1cccc([N+](=O)[O-])c1 (stereo not drawn) [nitrendipine], the “effect on basal [Ca2+]i or increases evoked by extracellular Ca2+” value ([1]; 1 μM) was “None”.
For N[C@@H](Cn1oc(=O)[nH]c1=O)C(=O)O [quisqualate], the “response of bovine parathyroid cells or Xenopus oocytes expressing calcium receptors to mGluR agonists” value [1] was “did not respond”.
With COc1ccc(CCN(C)CCCC(C#N)(c2ccc(OC)c(OC)c2)C(C)C)cc1OC (stereo not drawn) [verapamil] the “block of influx of extracellular Ca2+” value ([4]; 100 μM) was “blocked the influx of extracellular”.
For Gentamicin, the “Net (+) Charge (Table 1)” value [3] was “+5” and the net positive charge ([3]; pH 7.3) was “+5”.
